Data published in US8097759B2, “Inflammatory cytokine release inhibitor” (Institute of Medicinal Molecular Design, Inc., priority 2000, dated 2012).

Tested on: NF-κB activation
Test: NF-κB activation reporter assay (pNFκB-Luc luciferase) under TNF-α stimulation
Assay type: cell-based, human
Details: Homo sapiens, HepG2 or HeLa cells, TNF-α 40 ng/ml, 4 hours, read-out: The rate of inhibitory activity against NF-κB activation (%); for inhibition at 1 µg/mL: Concentration of the agent: 1 μg/mL; for inhibition at 10 µg/mL: Concentration of the agent: 10 μg/mL
Procedure: Using a transfection reagent (Effectene; QIAGEN), the human hepatoma cell strain HepG2 or the human hysterocarcinoma cell strain HeLa was transfected with the firefly luciferase gene (Luc) contained plasmid (pNF κB-Luc Reporter Plasmid; […]) which contained oligonucleotide having five tandem copies of NF-κB binding sequences ([…]) on a upstream region of Luc, according to the QUAGEN's protocol and it was incuvated for 6-24 hours. After addition of TNF-α (40 ng/ml) with or without the test compound, the cells were incuvated for 4 hours, and intracellular luciferase activity was measured with PicaGene LT (TOYO INK MFG Co., Ltd.) and chemical luminescence measurement device ([…]luor Plus; TECAN). The inhibition ratio was measured as a ratio to the value of the luciferase activity without the test compound.

Compound | inhibition at 1 µg/mL | inhibition at 10 µg/mL
O=C(Nc1ccccc1)c1cc(Br)ccc1O [Compound 139] | -48.2% | 60.2%
O=C(Nc1cccc(Cl)c1)c1cc(Br)ccc1O [Compound 140] | 94.2% | 96.7%
O=C(Nc1ccc(Cl)cc1)c1cc(Br)ccc1O [Compound 141] | 83.3% | 96.4%
O=C(Nc1cc(Cl)ccc1Cl)c1cc(Cl)ccc1O [Compound 142] | 95.1% | 96.9%
O=C(Nc1ccc(Cl)c(Cl)c1)c1cc(Br)ccc1O [Compound 143] | 91.6% | 93.8%
O=C(Nc1cc(F)cc(F)c1)c1cc(Br)ccc1O [Compound 144] | 91.8% | 96.8%
O=C(Nc1cc(Cl)cc(Cl)c1)c1ccccc1O [Compound 145] | 92.9% | 95.5%
O=C(Nc1cc(Cl)cc(Cl)c1)c1cc(F)ccc1O [Compound 146] | 94.2% | 97%
O=C(Nc1cc(Cl)cc(Cl)c1)c1cc(Cl)ccc1O [Compound 147] | 84.5% | 96.8%
O=C(Nc1cc(Cl)cc(Cl)c1)c1cc(Br)ccc1O [Compound 148] | 77.1% | 92.8%
O=C(Nc1cc(Cl)cc(Cl)c1)c1cc(I)ccc1O [Compound 149] | 85.4% | 97.1%
O=C(Nc1cc(Cl)cc(Cl)c1)c1cc(Br)cc(Br)c1O [Compound 150] | 91.4% | 95.1%
O=C(Nc1cc(Cl)cc(Cl)c1)c1ccc(Cl)cc1O [Compound 151] | -42.8% | 71.8%
O=C(Nc1cc(Cl)cc(Cl)c1)c1cc([N+](=O)[O-])ccc1O [Compound 152] | -56.8% | 70.6%
Cc1ccc(O)c(C(=O)Nc2cc(Cl)cc(Cl)c2)c1 [Compound 153] | 49.1% | 88.7%
COc1ccc(O)c(C(=O)Nc2cc(Cl)cc(Cl)c2)c1 [Compound 154] | -31% | 48.2%
O=C(Nc1cc(Cl)c(Cl)c(Cl)c1)c1cc(Br)ccc1O [Compound 155] | 85.6% | 94.1%
O=C(Nc1cc(Cl)c(O)c(Cl)c1)c1cc(Br)ccc1O [Compound 156] | 7.3% | 74.9%
O=C(Nc1c(F)c(F)c(F)c(F)c1F)c1cc(Cl)ccc1O [Compound 157] | 86.2% | 98.1%
O=C(Nc1cc([N+](=O)[O-])cc([N+](=O)[O-])c1)c1cc(Br)ccc1O [Compound 158] | 91% | 95.6%
CC(C)(C)c1ccc(C(C)(C)C)c(NC(=O)c2cc(Cl)ccc2O)c1 [Compound 159] | 89.1% | 96.3%
Cc1cc(C)cc(NC(=O)c2cc(Br)ccc2O)c1 [Compound 161] | 86.3% | 92.6%

Compound | inhibition at 1 µg/mL | inhibition at 10 µg/mL
CC(C)(C)c1cc(NC(=O)c2cc(Br)ccc2O)cc(C(C)(C)C)c1 [Compound 163] | 70.9% | 82%
O=C(Nc1cccc(-c2ccccc2)c1)c1cc(Cl)ccc1O [Compound 165] | 88.2% | 95.1%
COc1ccc(-c2ccccc2)cc1NC(=O)c1cc(Cl)ccc1O [Compound 166] | 82.4% | 97.9%
COc1ccc(OC)c(NC(=O)c2cc(Br)ccc2O)c1 [Compound 167] | 32.4% | 95.7%
COc1cc(NC(=O)c2cc(Br)ccc2O)cc(OC)c1 [Compound 168] | 38.3% | 96.8%
CC(=O)c1cccc(NC(=O)c2cc(Cl)ccc2O)c1 [Compound 169] | 14.5% | 88.1%
O=C(Nc1nccs1)c1cc(Br)ccc1O [Compound 180] | -23.1% | 42.8%
O=C(Nc1nc(C(F)(F)F)c(Br)s1)c1cc(Br)ccc1O [Compound 182] | 85.3% | 94.4%
CC(C)(C)c1nc(NC(=O)c2cc(Br)ccc2O)sc1C#N [Compound 184] | 20% | 93.8%
Cc1cnc(NC(=O)c2cc(Br)ccc2O)s1 [Compound 185] | -1.5% | 69.7%
Cc1nc(NC(=O)c2cc(Br)ccc2O)sc1C [Compound 187] | 4.6% | 67.2%
Cc1sc(NC(=O)c2cc(Br)ccc2O)nc1-c1ccccc1 [Compound 188] | 83.6% | 94.4%
Cc1nc(NC(=O)c2cc(Br)ccc2O)sc1-c1cccc(C(F)(F)F)c1 [Compound 190] | -32.4% | –
CCc1nc(NC(=O)c2cc(Br)ccc2O)sc1-c1ccccc1 [Compound 192] | 28.8% | 87.6%
O=C(Nc1nc(-c2ccccc2)cs1)c1cc(Br)ccc1O [Compound 202] | -41.8% | 78.8%
O=C(O)Cc1sc(NC(=O)c2cc(Br)ccc2O)nc1-c1ccccc1 [Compound 203] | 2.4% | 72.1%
O=C(Nc1nc(-c2ccccc2)c(-c2ccccc2)s1)c1cc(Br)ccc1O [Compound 204] | -5.3% | 67%
O=C(Nc1nc(Cc2ccccc2)c(-c2ccccc2)s1)c1cc(Br)ccc1O [Compound 205] | 79.7% | 95%
O=C(Nc1nc(C(F)(F)F)c(-c2ccccc2)s1)c1cc(Br)ccc1O [Compound 206] | 85.1% | 89.4%
CCOC(=O)c1sc(NC(=O)c2cc(Br)ccc2O)nc1C(F)(F)F [Compound 216] | 87.6% | 96.5%
CCOC(=O)c1sc(NC(=O)c2cc(-n3cccc3)ccc2O)nc1-c1ccccc1 [Compound 222] | 74% | 90.1%
